Values of other authors as cited in patent US20260158011A1 (Achieve Life Sciences, Inc., priority 2023, published 2026).
Read-outs that look alike come from different tables or passages of the source.

Columns and labels:
smokers [1] = settings: cited from earlier work
smokers [2] = settings: Cochrane, Chantix (n > 7000); cited from earlier work
[3] = target: neuronal alpha4, beta2 (α4β2) receptors (Homo sapiens, UniProt P17787+P43681); settings: background studies; cited from earlier work
neuronal alpha4, beta2 (α4β2) receptors, sequence (P43681 29-627 limits assumed): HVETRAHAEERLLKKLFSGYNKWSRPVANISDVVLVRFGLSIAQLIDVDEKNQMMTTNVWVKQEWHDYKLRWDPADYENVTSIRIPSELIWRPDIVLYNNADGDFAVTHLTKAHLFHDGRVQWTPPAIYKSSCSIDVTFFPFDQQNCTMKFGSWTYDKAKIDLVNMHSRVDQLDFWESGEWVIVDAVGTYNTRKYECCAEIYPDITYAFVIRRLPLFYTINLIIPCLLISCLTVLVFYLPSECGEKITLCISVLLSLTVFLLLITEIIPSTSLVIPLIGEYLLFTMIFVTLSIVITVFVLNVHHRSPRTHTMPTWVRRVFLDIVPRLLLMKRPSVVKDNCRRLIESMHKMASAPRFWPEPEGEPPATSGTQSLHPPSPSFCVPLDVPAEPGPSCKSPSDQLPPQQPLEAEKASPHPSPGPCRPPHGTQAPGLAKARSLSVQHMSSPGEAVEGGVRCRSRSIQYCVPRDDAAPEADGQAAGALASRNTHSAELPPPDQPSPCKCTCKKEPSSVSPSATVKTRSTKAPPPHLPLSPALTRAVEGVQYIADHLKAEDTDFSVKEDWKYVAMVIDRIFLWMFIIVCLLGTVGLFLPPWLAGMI
neuronal alpha4, beta2 (α4β2) receptors, sequence (P17787 26-502): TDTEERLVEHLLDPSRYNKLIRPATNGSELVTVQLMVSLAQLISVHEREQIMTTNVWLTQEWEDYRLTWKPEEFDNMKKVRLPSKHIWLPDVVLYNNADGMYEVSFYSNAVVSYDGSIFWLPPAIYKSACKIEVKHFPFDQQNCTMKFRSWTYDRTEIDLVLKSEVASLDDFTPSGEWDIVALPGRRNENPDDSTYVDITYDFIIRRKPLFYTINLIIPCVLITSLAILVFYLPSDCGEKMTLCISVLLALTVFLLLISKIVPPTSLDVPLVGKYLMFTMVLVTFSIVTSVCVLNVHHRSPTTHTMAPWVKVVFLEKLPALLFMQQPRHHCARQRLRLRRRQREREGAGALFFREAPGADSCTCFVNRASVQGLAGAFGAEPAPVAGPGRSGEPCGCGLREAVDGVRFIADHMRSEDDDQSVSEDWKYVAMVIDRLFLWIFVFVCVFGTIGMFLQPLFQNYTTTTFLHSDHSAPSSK

With `c1cnc2cc3c(cc2n1)[C@@H]1CNC[C@H]3C1` [Chantix ®, varenicline] as the molecule, how does the “OR at End of Treatment” value (smokers [1]; Chantix 12 weeks (EAGLES), versus placebo) read?
The value was 4.0.

And the “Drug-placebo difference in quit rate at End of Treatment” value (smokers [1]; Chantix 12 weeks (EAGLES))?
The value was 24.3%.

What about the “Quit Rate at End of Treatment” value (smokers [1]; Chantix 12 weeks (EAGLES)) of the same molecule?
Its value is 38.0%.

What about the “OR at 4 Weeks Off Treatment” value (smokers [1]; Chantix (EAGLES), versus placebo) of the same molecule?
Its value is 3.5.

What about the “Drug-placebo difference in quit rate at 4 Weeks Off Treatment” value (smokers [1]; Chantix (EAGLES)) of the same molecule?
Its value is 20.7%.

And the “Quit Rate at 4 Weeks Off Treatment” value (smokers [1]; Chantix (EAGLES))?
Its value is 33.2%.

What about the “OR at 4 Weeks Treatment” value (smokers [1]; Chantix (ONCKEN), versus placebo) of the same molecule?
Its value is 3.1.

What about the “Drug-placebo difference in quit rate at 4 Weeks Treatment” value (smokers [1]; Chantix (ONCKEN)) of the same molecule?
The value was 21.4%.

And the “Quit Rate at 4 Weeks Treatment” value (smokers [1]; Chantix (ONCKEN))?
The value was 37.7%.

And the “Quit rate at 24 weeks” value (smokers [1]; EAGLES, U.S. patients (N=1065))?
Its value is 16%.

And the “Overall quit rate at 24 weeks” value (smokers [1]; EAGLES, all regions)?
The value was 22%.

What about the “CAR weeks 9-24 % (95% CI)” value (smokers [1]; EAGLES, region Non-U.S.) of the same molecule?
The value was 27.9 (25.2-30.8) % (95% CI).

And the “Versus placebo OR (95% CI), CAR weeks 9-24” value (smokers [1]; EAGLES, region Non-U.S.)?
Its value is 2.80 (2.20-3.55).

And the “CAR weeks 9-24 % (95% CI)” value (smokers [1]; EAGLES, region U.S.)?
The value was 16.1 (14.0-18.4) % (95% CI).

And the “Versus placebo OR (95% CI), CAR weeks 9-24” value (smokers [1]; EAGLES, region U.S.)?
Its value is 2.66 (1.99-3.55).

What about the “Serious AEs” value (smokers [2]) of the same molecule?
Its value is 3.3%.

What about the “TEAE: Abnormal dreams” value (smokers [2]) of the same molecule?
The value was 12.5%.

And the “TEAE: Headache” value (smokers [2])?
Its value is 12.7%.

And the “TEAE: Insomnia” value (smokers [2])?
Its value is 14.2%.

And the “TEAE: Nausea” value (smokers [2])?
Its value is 27.8%.

Which “Binding to α4β2 receptors” value [3] does the source give for `CN1CCCC1c1cccnc1` (stereo not drawn) [nicotine, reference compound] here?
The value was “bind strongly and preferentially”.
